In ChEMBL document CHEMBL2321724 (J Med Chem, 2013):

Legend:
[1] = biological target: T1, Voltage-gated inwardly rectifying potassium channel KCNH2 (Homo sapiens, UniProt Q12809); assay: Displacement of [3H]astemizole from human ERG K+ channel expressed in HEK293 cells by scintillation spectrophotometric analysis
[2] = biological target: T2, hERG (KCNH2) K+ channel (Homo sapiens, UniProt Q12809); assay: Displacement of [3H]astemizole from human ERG K+ channel expressed in HEK293 cells at 10 uM by scintillation spectrophotometric analysis
[3] = biological target: T1, Voltage-gated inwardly rectifying potassium channel KCNH2; assay: Inhibition of human ERG K+ channel expressed in HEK293 cells after 15 mins by patch clamp assay; assay type: cell-based
[4] = biological target: T2, hERG (KCNH2) K+ channel; assay: Assay index, ratio of IC50 for human ERG K+ channel expressed in HEK293 cells by patch clamp assay to IC50 for human ERG K+ channel expressed in HEK293 cells by radioligand binding assay; assay type: cell-based; conditions: HEK293 cells expressing human ERG K+ channel, read-out: Ratio IC50
[5] = HEK293 cells expressing human ERG K+ channel, probe [3H]astemizole

T1 sequence (Q12809 whole entry): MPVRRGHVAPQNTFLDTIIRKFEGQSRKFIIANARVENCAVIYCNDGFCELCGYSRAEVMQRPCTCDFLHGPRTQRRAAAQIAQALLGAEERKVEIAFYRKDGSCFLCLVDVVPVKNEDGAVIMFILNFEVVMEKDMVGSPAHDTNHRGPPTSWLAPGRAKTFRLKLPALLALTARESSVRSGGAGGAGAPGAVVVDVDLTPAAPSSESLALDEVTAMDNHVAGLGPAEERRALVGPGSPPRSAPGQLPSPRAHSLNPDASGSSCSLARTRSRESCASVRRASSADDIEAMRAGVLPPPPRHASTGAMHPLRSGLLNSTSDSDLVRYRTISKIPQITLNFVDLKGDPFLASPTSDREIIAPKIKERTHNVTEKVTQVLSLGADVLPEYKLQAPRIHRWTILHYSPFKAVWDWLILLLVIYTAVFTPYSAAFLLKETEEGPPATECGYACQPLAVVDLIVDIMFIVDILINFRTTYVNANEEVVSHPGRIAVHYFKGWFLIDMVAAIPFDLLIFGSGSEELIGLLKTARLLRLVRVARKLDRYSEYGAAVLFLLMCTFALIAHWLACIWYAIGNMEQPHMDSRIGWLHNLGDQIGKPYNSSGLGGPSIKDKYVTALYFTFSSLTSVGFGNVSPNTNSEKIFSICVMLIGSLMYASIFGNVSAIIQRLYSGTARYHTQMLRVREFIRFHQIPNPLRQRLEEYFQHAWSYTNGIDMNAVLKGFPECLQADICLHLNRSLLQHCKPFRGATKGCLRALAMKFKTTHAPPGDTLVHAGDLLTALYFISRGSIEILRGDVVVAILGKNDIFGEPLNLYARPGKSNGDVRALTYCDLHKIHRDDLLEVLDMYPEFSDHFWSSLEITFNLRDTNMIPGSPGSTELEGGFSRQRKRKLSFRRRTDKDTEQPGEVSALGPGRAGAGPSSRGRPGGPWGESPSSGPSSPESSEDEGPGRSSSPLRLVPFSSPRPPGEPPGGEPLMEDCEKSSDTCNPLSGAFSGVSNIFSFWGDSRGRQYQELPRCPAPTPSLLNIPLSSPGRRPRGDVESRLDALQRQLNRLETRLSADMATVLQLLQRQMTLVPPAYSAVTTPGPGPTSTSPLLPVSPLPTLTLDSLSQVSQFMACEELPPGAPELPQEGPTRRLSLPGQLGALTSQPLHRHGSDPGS
T2 sequence (Q12809 whole entry): as above

SMILES	IC50 [1] [nM]	other results
C[n+]1c(CCCOc2ccccc2)cccc1CCCOc1ccccc1	208	
C[n+]1c(C#Cc2ccc(-c3ccccc3)cc2)cccc1C#Cc1ccc(-c2ccccc2)cc1	294	
c1ccc(OCc2cccc(COc3ccccc3)n2)cc1		inhibition at 10 µM ([2]; hek293): 15%
C(#Cc1cccc(C#Cc2ccccc2)n1)c1ccccc1		inhibition at 10 µM [2, 5]: -11%
C[n+]1c(C#Cc2cccc(Cl)c2)cccc1C#Cc1cccc(Cl)c1	4020	
Cc1ccc(COCc2cccc(COCc3ccc(C)cc3)[n+]2C)cc1	107	
Cc1ccc(Cc2ccnc(COc3ccc(C)cc3)c2)cc1	> 10000	inhibition at 10 µM [2, 5]: -3%
c1ccc(CCc2cccc(CCc3ccccc3)c2)cc1		inhibition at 10 µM [2, 5]: 8%
CCCCCCC#Cc1cccc(C#CCCCCCC)[n+]1C	1990	
C[n+]1c(C#Cc2ccccc2Cl)cccc1C#Cc1ccccc1Cl	3900	
Cc1ccc(CCCOCc2cccc(COCCCc3ccc(C)cc3)[n+]2C)cc1	24	IC50 [3]: 194 nM; selectivity ratio [4]: 8.1
C[n+]1c(COc2ccccc2)cccc1COc1ccccc1	767	
Cc1ccc(CCOCCCc2cccc(CCCOCCc3ccc(C)cc3)[n+]2C)cc1	371	
Cc1ccc(CCOCc2cccc(COCCc3ccc(C)cc3)[n+]2C)cc1	135	
Cc1ccc(C#Cc2cccc(C#Cc3ccc(C)cc3)[n+]2C)cc1	285	
Cc1ccc(OCCCc2cc(N)cc(CCCOc3ccc(C)cc3)n2)cc1	170	IC50 [3]: 146 nM; selectivity ratio [4]: 0.86
Cc1ccc(CCc2cccc(CCc3ccc(C)cc3)n2)cc1		IC50 ([1]; human, hek293): > 10000 nM
Cc1ccc(OCCCc2cccc(CCCOc3ccc(C)cc3)[n+]2C)cc1	86	IC50 [3]: 962 nM; selectivity ratio [4]: 11.2
c1ccc(CCc2cccc(CCc3ccccc3)n2)cc1	1610	
C[n+]1c(C#CCOc2ccccc2Cl)cccc1C#CCOc1ccccc1Cl		inhibition at 10 µM [2, 5]: 16%
Cc1ccc(Cc2cccc(COc3ccc(C)cc3)n2)cc1		inhibition at 10 µM ([2]; hek293): 9%
